Reference: patent US6399623B1, “Wood treatment” (Agrevo UK Ltd., priority 1998, dated 2002)

Assays:
[1] = test system: wood rotting fungi (mainly basidiomycetes); test: In vivo test of activity against wood destroying fungi (dipped pine pieces); settings: 100 ppm fluquinconazole, formulation containing di(2-ethylhexyl)octyl phosphonate, 5 weeks in sealed bag, compared with standards without pesticide
Method: Pieces of pine were dipped into a fluquinconazole formulation containing di(2-ethylhexyl)octyl phosphonate at different rates and then removed and put, whilst soaking wet, into a polythene bag which was sealed and left in a greenhouse for 5 weeks. The degree of control of wood rotting fungi (mainly basidiomycetes) was then assessed.

sapstain fungi = test: In vivo test of activity against sapstain fungi (dipped pine bundles); settings: 50% suspension concentrate diluted to 0.25%, 60 s dip, after 4 weeks; compared with wood dipped only in water
Source text: Bundles consisting of 7 pieces of freshly cut pine (approximate sizes of 20 cm×30 cm) were dipped in a 50% suspension concentrate of fluquinconazole, diluted to 0.25%, for 60 seconds, ensuring each piece of wood was separated from its contacting pieces. The wood was removed from the liquid and allowed to drain for 10 seconds and then placed in an unsealed polythene bag at room temperature. The bag was used in order to maintain a high relative humidity, which promotes growth of sapstain. The wood was removed for examination after 4 weeks and divided into two in order to expose the centre of the bundles. These were assessed for sapstain infection.

Coniophora puteana = test: In vitro malt agar test, colony diameter; type: cell-based; settings: assessed after 6 days
Method: (§1) A 50% SC of fluquinconazole (fq) was incorporated into malt agar at various rates and the agar placed into Petri dishes. Into the centre of each plate was implanted a 4 mm plug of the mycelium of a wood rotting fungus. The plates were kept at 20° C. in a darkened room for 6 days when the control of the fungus by the fluquinconazole was assessed. The experiment was also carried out with a fluquinconazole formulation containing di(2-ethylhexyl)octyl phosphonate (ph) with and without prochloraz (pz).

Coriolus versicolor = test: In vitro malt agar test, colony diameter; type: cell-based; settings: assessed after 6 days
Method: as §1

Poria placenta = test: In vitro malt agar test, colony diameter; type: cell-based; settings: assessed after 6 days
Method: as §1

Gloephyllum trabeum = test: In vitro malt agar test, colony diameter; type: cell-based; settings: assessed after 11 days
Method: as §1, with “The plates were kept at 20° C. in a darkened room for 6 days when the control of the fungus by the fluquinconazole was assessed.” left out

O=c1c2cc(F)ccc2nc(-n2cncn2)n1-c1ccc(Cl)cc1Cl [fluquinconazole, 3-(2,4-dichlorophenyl)-6-fluoro-2-(1H-1,2,4-triazol-1-yl)-4(3H)-quinazolinone]
control of wood rotting fungi [1]: 73.1%
control of the sapstain (sapstain fungi): > 60%
% Control based on colony diameter (Coniophora puteana; 1 ppm): 50.4%
% Control based on colony diameter (Coniophora puteana; 5 ppm): 75.6%
% Control based on colony diameter (Coniophora puteana; 10 ppm): 84.7%
% Control based on colony diameter (Coniophora puteana; 25 ppm): 68.7%
% Control based on colony diameter (Coniophora puteana; 100 ppm): 77.9%
% Control based on colony diameter (Coriolus versicolor; 1 ppm): 100.0%
% Control based on colony diameter (Coriolus versicolor; 5 ppm): 100.0%
% Control based on colony diameter (Coriolus versicolor; 10 ppm): 100.0%
% Control based on colony diameter (Coriolus versicolor; 25 ppm): 100.0%
% Control based on colony diameter (Coriolus versicolor; 100 ppm): 100.0%
% Control based on colony diameter (Poria placenta; 1 ppm): 99.4%
% Control based on colony diameter (Poria placenta; 5 ppm): 100.0%
% Control based on colony diameter (Poria placenta; 10 ppm): 100.0%
% Control based on colony diameter (Poria placenta; 25 ppm): 100.0%
% Control based on colony diameter (Poria placenta; 100 ppm): 100.0%
% Control based on colony diameter (Gloephyllum trabeum; 1 ppm): 80.5%
% Control based on colony diameter (Gloephyllum trabeum; 5 ppm): 94.0%
% Control based on colony diameter (Gloephyllum trabeum; 10 ppm): 95.0%
% Control based on colony diameter (Gloephyllum trabeum; 25 ppm): 92.5%
% Control based on colony diameter (Gloephyllum trabeum; 100 ppm): 94.0%
